Laboratory results: US20230210116A1, “HONEYBEE REPELLENT” (EARTH CORPORATION, priority 2020, published 2023)
Counter-ions that a name gives are not always drawn.

Tests used:
stink bugs = assay: Test for Confirmation of Stink Bug Behaviors against Active Ingredients 1, 2, 3 (treated filter paper); format: in vivo, southern green stink bugs
Text: The test samples in “Test for Confirmation of Honeybee Repelling Effect 1” above were used.
A liquid calcium carbonate/ethanol dispersion was applied on the entire interior wall of a KP cup (100 mm in diameter×90 mm in height) and air-dried, after which a filter paper (90 mm in diameter) was fixed on the bottom face of the KP cup using double-sided tape. A different filter paper (90 mm in diameter) was cut along its diameter and the resulting semicircle-shaped paper was uniformly treated with 400 μL of each test sample or sample for correction, and then placed over the filter paper fixed on the aforementioned bottom face of the KP cup by allowing the circular parts to overlap, for use as a testing device.
The “repelling rate Y” and “corrected repelling rate Z” were calculated from the above “time A (sec)” and “time B (sec)” using the calculation formula below. For the “repelling rate of sample for correction” used to calculate the “corrected repelling rate Z,” the repelling rate of each of the samples for correction above (ethanol alone or water alone being a solvent for the active ingredient) was used.
Corrected repelling rate Z (%)={Repelling rate of test sample−Repelling rate of sample for correction}/{100−Repelling rate of sample for correction}×100
For the test samples, the test samples in “Test for Confirmation of Honeybee Repelling Effect 2” above were used.

honeybees = assay: Test for Confirmation of Honeybee Repelling Effect 1, 2, 3 (feeding station with 40% sugar water); format: in vivo; settings: for Corrected repelling rate (%) Honeybees: Test 3, 5 mL; for honeybee repelling rate: Test 3, summary in text
Text: The following were used as the test samples for Examples: 2% by weight per volume ethanol solutions of octane (a-1), tetradecane (a-2), heptadecane (a-3), nonadecane (a-4), 2-acetylfuran (b-1), 5-methyl-2-furaldehyde (b-2), furfural (b-3), furaneol (c-1), 2-acetylpyrrole (d-1), 1-benzylpyrrole (d-2), 1-octanol (e-1), 1-dodecanol (e-2), and 1-octadecanol (e-3), respectively; and 2% by weight per volume aqueous solutions of furfuryl alcohol (b-4), sotolon (c-2), and α-angelicalactone (c-3), respectively.
The following were used as the test samples for Comparative Examples: 2% by weight per volume ethanol solutions of eicosane (carbon number 20, p-1), heneicosane (carbon number 21, p-2), 2-methyloctane (branched alkane, p-3), tributyl o-acetylcitrate (p-4), and 1-methylpyrrole (p-5), respectively; and 2% by weight per volume aqueous solutions of 2-methyltetrahydrofuran-3-one (p-6) and acetic acid (p-7), respectively.
Ethanol alone and water alone were used as samples for correction.
The cotton pads 13 were impregnated with 40% sugar water (80 g), after which disposable wooden chopsticks 15 (80 mm in length) were placed over the cotton pads on the lid surface as “landing areas,” for use as “test insect (honeybee) feeding station 1” 10.
A nest box of test insects (honeybees) (1 colony: approx. 6,000 bees) was placed at the center of a glass hothouse (bottom face: 5 m×10 m, height (highest part): 3 m, temperature: 25° C.), and the aforementioned “test insect (honeybee) feeding station 1” was installed at a location 2 meters away from the nest box.
After confirming that at least five test insects (honeybees) were feeding at the above “test insect (honeybee) feeding station 1” installed in the hothouse, test 1 was conducted to measure the “approaching count (Mz)” and “landing count (My)” and calculate the “landing rate (Mx).”
Next, the “test insect (honeybee) feeding station 1” installed in the hothouse was replaced with each “test insect (honeybee) feeding station 2” which was let to stand still for 5 minutes, after which test 2 was conducted to measure the “approaching count (Nz)” and “landing count (Ny)” and calculate the “landing rate (Nx).”
Approaching count: Total number of times a honeybee has approached within 25 cm of the cotton wools at the feeding station during 5 minutes
Landing count: Total number of honeybees that have remained for at least 1 second on the cotton pads at the feeding station during 5 minutes
Landing rate (%): (Landing count/Approaching count)×100
The “repelling rate Q” and “corrected repelling rate R” were calculated from the above “landing rates” using the calculation formula below. For the “repelling rate of sample for correction” used to calculate the “corrected repelling rate R,” the repelling rate of each of the samples for correction above (ethanol alone or water alone being a solvent for the active ingredient) was used.
Repelling rate Q (%)={(Mx)−(Nx)}/(Mx)×100
Corrected repelling rate R (%)={Repelling rate of test sample−Repelling rate of sample for correction}/{100−Repelling rate of sample for correction}×100
The following were used as the test samples for Examples: 0.1% by weight per volume ethanol solutions of 3-methyl-2-butanol (e-4), carvacrol (x-1), isoeugenol (x-2), cinnamyl alcohol (x-3), diacetone alcohol (x-4), α-amylcinnamaldehyde (x-5), 3-methyl-2-butenal (x-6), valeraldehyde (x-7), ethyl cinnamate (x-8), methyl cinnamate (x-9), ethyl isovalerate (x-10), isoamyl formate (x-11), 5-ethyl-2-methylpyridine (x-12), 2-(3-phenylpropyl)pyridine (x-13), 2,6-dimethylpyridine (x-14), ß-ionone (x-15), 2-acetylthiazole (x-16), butylamine (x-17), and citronella oil (x-18), respectively; and a 0.1% by weight per volume aqueous solution of (3-amino-3-carboxypropyl)dimethylsulfonium chloride (x-19).

[1] = Test 3, 0.1% by weight per volume solution, 400 μL
[2] = 0.1% by weight per volume solution
[3] = Test 2, 0.1% by weight per volume solution, 400 μL
[4] = Test 2, honeybees, 0.1% by weight per volume solution, 5 mL (active ingredient 5 mg)
[5] = Test 1, 2% by weight per volume solution, 400 μL on filter paper, 30 minutes
[6] = Test 1, honeybees, 2% by weight per volume solution, 5 mL sprayed (active ingredient 0.1 g)
[7] = Test 1, 2% by weight per volume solution

SMILES: OCc1ccco1 [b-4, furfuryl alcohol]
- Corrected repelling rate (%) Stinkbugs (stink bugs; 0.5 h, 2 % strength): <0%
- Corrected repelling rate R (%) (honeybees; 2 % strength): 94.8%

SMILES: CCCC(=O)OCCC(C)C [y-51, isoamyl butyrate]
- repelling of stink bugs and other injurious insects to be exterminated (in words) (stink bugs): not repelling stink bugs
- Corrected repelling rate (%) Stinkbugs (stink bugs; Test 3, 2.0% by weight per volume solution, 400 μL): ∘
- Corrected repelling rate (%) Honeybees (honeybees; 2.0% by weight per volume solution): 75.9%

SMILES: CC(C)=CCC/C(C)=C/COC=O [y-28, geranyl formate]
- repelling of stink bugs and other injurious insects to be exterminated (in words) (stink bugs): not repelling stink bugs
- Corrected repelling rate (%) Stinkbugs (stink bugs; [1]): ∘
- Corrected repelling rate (%) Honeybees (honeybees; [2]): 98.0%

SMILES: CC(C)CC=O [y-14, isovaleraldehyde]
- repelling of stink bugs and other injurious insects to be exterminated (in words) (stink bugs): not repelling stink bugs
- Corrected repelling rate (%) Stinkbugs (stink bugs; [1]): ∘
- Corrected repelling rate (%) Honeybees (honeybees; [2]): 65.5%

SMILES: CCOC(=O)CC(C)(C)C [y-42, ethyl tert-butylacetate]
- Corrected repelling rate (%) Stinkbugs (stink bugs; [1]): ∘
- Corrected repelling rate (%) Honeybees (honeybees; [2]): 27.7%

SMILES: Cc1ccc(C(C)C)cc1O [x-1, carvacrol]
- Corrected repelling rate (%) Stinkbugs (stink bugs; [3]): <0%
- Corrected repelling rate R (%) (honeybees; [4]): 80.6%

SMILES: CCCCC(CC)COC(=O)c1ccccc1O (stereo not shown) [y-22, 2-ethylhexyl salicylate]
- Corrected repelling rate (%) Stinkbugs (stink bugs; [1]): ∘
- Corrected repelling rate (%) Honeybees (honeybees; [2]): 23.7%

SMILES: CC1=C(O)C(=O)C(C)O1 (stereo not shown) [c-1, furaneol]
- Corrected repelling rate (%) Stinkbugs (stink bugs; [5]): <0%
- Corrected repelling rate R (%) (honeybees; [6]): 44.0%

SMILES: CC(C)=CCO [e-8, 3-methyl-2-buten-1-ol]
- Corrected repelling rate (%) Stinkbugs (stink bugs; [1]): ∘
- Corrected repelling rate (%) Honeybees (honeybees; [2]): 30.4%

SMILES: CCCC(=O)O [y-73, butyric acid]
- Corrected repelling rate (%) Stinkbugs (stink bugs; [1]): ∘
- Corrected repelling rate (%) Honeybees (honeybees; [2]): 33.0%

SMILES: CC(=O)/C=C/C1=C(C)CCCC1(C)C [x-15, ß-ionone]
- Corrected repelling rate (%) Stinkbugs (stink bugs; [3]): <0%
- Corrected repelling rate R (%) (honeybees; [4]): 83.7%

SMILES: CCOC(=O)C=Cc1ccccc1 [x-8, ethyl cinnamate]
- Corrected repelling rate (%) Stinkbugs (stink bugs; [3]): <0%
- Corrected repelling rate R (%) (honeybees; [4]): 21.8%

SMILES: CC(=O)OCCc1ccccc1 [y-20, phenethyl acetate]
- repelling of stink bugs and other injurious insects to be exterminated (in words) (stink bugs): not repelling stink bugs
- Corrected repelling rate (%) Stinkbugs (stink bugs; [1]): ∘
- Corrected repelling rate (%) Honeybees (honeybees; [2]): 58.9%

SMILES: CC1=C(O)C(=O)OC1C (stereo not shown) [c-2, sotolon]
- Corrected repelling rate (%) Stinkbugs (stink bugs; [5]): <0%
- repelling effect / repelled behaviors of honeybees (in words) (honeybees; [7]): excellent repelling effect
- Corrected repelling rate R (%) (honeybees; [6]): 79.7%

SMILES: CCC(=O)Oc1c(C)occc1=O [y-96, maltol propionate]
- repelling of stink bugs and other injurious insects to be exterminated (in words) (stink bugs): not repelling stink bugs
- Corrected repelling rate (%) Stinkbugs (stink bugs; [1]): ∘
- Corrected repelling rate (%) Honeybees (honeybees; [2]): 57.5%

SMILES: COC(=O)c1ccccc1N [y-33, methyl anthranilate]
- repelling of stink bugs and other injurious insects to be exterminated (in words) (stink bugs): not repelling stink bugs
- Corrected repelling rate (%) Stinkbugs (stink bugs; [1]): ∘
- Corrected repelling rate (%) Honeybees (honeybees; [2]): 51.0%

SMILES: CCCCCO [e-7, 1-pentanol]
- repelling of stink bugs and other injurious insects to be exterminated (in words) (stink bugs): not repelling stink bugs
- Corrected repelling rate (%) Stinkbugs (stink bugs; [1]): ∘
- Corrected repelling rate (%) Honeybees (honeybees; [2]): 68.9%

SMILES: Cc1cccc2ccccc12 [y-87, 1-methylnaphthalene]
- repelling of stink bugs and other injurious insects to be exterminated (in words) (stink bugs): not repelling stink bugs
- Corrected repelling rate (%) Stinkbugs (stink bugs; [1]): ∘
- honeybee repelling rate (honeybees): ≥ 50%
- Corrected repelling rate (%) Honeybees (honeybees; [2]): 74.3%

SMILES: CCOC(=O)CC(C)C [x-10, ethyl isovalerate]
- Corrected repelling rate (%) Stinkbugs (stink bugs; [3]): <0%
- Corrected repelling rate R (%) (honeybees; [4]): 61.0%

SMILES: C=CCOC(=O)Cc1ccccc1 [y-44, allyl phenylacetate]
- repelling of stink bugs and other injurious insects to be exterminated (in words) (stink bugs): not repelling stink bugs
- Corrected repelling rate (%) Stinkbugs (stink bugs; [1]): ∘
- Corrected repelling rate (%) Honeybees (honeybees; [2]): 73.6%

SMILES: c1ccc(-c2nc3ccccc3nc2-c2ccccc2)cc1 [y-84, 2,3-diphenylquinoxaline]
- repelling of stink bugs and other injurious insects to be exterminated (in words) (stink bugs): not repelling stink bugs
- Corrected repelling rate (%) Stinkbugs (stink bugs; [1]): ∘
- Corrected repelling rate (%) Honeybees (honeybees; [2]): 75.8%

SMILES: CCCCCCCCCCCCCC [a-2, tetradecane]
- Corrected repelling rate (%) Stinkbugs (stink bugs; [5]): <0%
- repelling effect / repelled behaviors of honeybees (in words) (honeybees; [7]): excellent repelling effect
- Corrected repelling rate R (%) (honeybees; [6]): 96.5%

SMILES: COc1ccc(C(=O)O)cc1OC [y-75, 3,4-dimethoxybenzoic acid]
- repelling of stink bugs and other injurious insects to be exterminated (in words) (stink bugs): not repelling stink bugs
- Corrected repelling rate (%) Stinkbugs (stink bugs; [1]): ∘
- Corrected repelling rate (%) Honeybees (honeybees; [2]): 70.6%

SMILES: C[S+](C)CCC(N)C(=O)O.[Cl-] (stereo not shown) [x-19, (3-amino-3-carboxypropyl)dimethylsulfonium chloride]
- Corrected repelling rate (%) Stinkbugs (stink bugs; [3]): <0%
- Corrected repelling rate R (%) (honeybees; [4]): 40.9%

SMILES: O=CC=Cc1ccccc1 [y-5, cinnamaldehyde]
- repelling of stink bugs and other injurious insects to be exterminated (in words) (stink bugs): not repelling stink bugs
- Corrected repelling rate (%) Stinkbugs (stink bugs; [1]): ∘
- honeybee repelling rate (honeybees): ≥ 50%
- Corrected repelling rate (%) Honeybees (honeybees; [2]): 94.4%

SMILES: C=CCOC(=O)CCCCC [y-49, allyl hexanoate]
- Corrected repelling rate (%) Stinkbugs (stink bugs; [1]): ∘
- Corrected repelling rate (%) Honeybees (honeybees; [2]): 33.5%

SMILES: C=C(C)C1CC=C(C=O)CC1 (stereo not shown) [y-8, perillaldehyde]
- Corrected repelling rate (%) Stinkbugs (stink bugs; 0.5 h, 0.1 % strength): x (“x” for rates “not <0”)
- Corrected repelling rate (%) Honeybees (honeybees; [2]): 94.7%

SMILES: Oc1cccc2nccnc12 [y-85, 5-hydroxyquinoxaline]
- repelling of stink bugs and other injurious insects to be exterminated (in words) (stink bugs): not repelling stink bugs
- Corrected repelling rate (%) Stinkbugs (stink bugs; [1]): ∘
- Corrected repelling rate (%) Honeybees (honeybees; [2]): 71.5%

SMILES: CCCCCCCC1CCCC(=O)O1 (stereo not shown) [y-65, δ-dodecalactone]
- repelling of stink bugs and other injurious insects to be exterminated (in words) (stink bugs): not repelling stink bugs
- Corrected repelling rate (%) Stinkbugs (stink bugs; [1]): ∘
- Corrected repelling rate (%) Honeybees (honeybees; [2]): 86.6%
